Experimental data taken from patent US20080096894A1, “Anti-Bacterial Compounds” (ASTON UNIVERSITY, priority 2005, published 2008).
Values after ≈ are worked out from the molar mass of the structure shown. Like-named read-outs stand apart in the source and are kept apart here. Values belong to the compound of their own block, whether it stands above or below them.

Columns and labels:
Assay in all cases: MIC, agar dilution, multipoint inoculator
MRSA = type: cell-based, methicillin-resistant Staphylococcus aureus
Experimental: (§1) This activity was measured using a multipoint inoculator method as follows. The MIC for each compound was measured using an agar dilution method (Onda, H., et al., Int. J. Antimicrob. Agents. 18, 263 (2001)) (Mueller Hinton agar) by means of a multipoint inoculator delivering 10^4 colony forming units per spot.
‘Staph’ refers to the reference strain of S. aureus (NCTC 6571). A tick in the MRSA column refers to a positive zone against MRSA strain 96-7474, and the MIC range (in μg/ml) which follows is that found against a panel of ten MRSA strains. Where MIC values are given for MRSA, these are stated as a range of values, as testing was carried out on a panel of clinical isolates.

S. aureus = type: cell-based, Staphylococcus aureus; details: upper value of MIC reading
Experimental: as §1

S. epidemisis = type: cell-based, Staphylococcus epidermidis; details: upper value of MIC reading
Experimental: as §1

S. haemolyticus = type: cell-based; details: S. haemolyticus Isolate 1, upper value of MIC reading
Experimental: as §1

E. faecalis = type: cell-based; details: upper value of MIC reading
Experimental: as §1

[1] = panel of ten MRSA strains (clinical isolates)
[2] = MRSA Isolate 3, upper value of MIC reading, in µg/mL
[3] = MRSA Isolate 1, upper value of MIC reading, in µg/mL
[4] = MRSA Isolate 2, upper value of MIC reading, in µg/mL
[5] = MRSA Isolate 4, upper value of MIC reading, in µg/mL
[6] = MRSA Isolate 5, upper value of MIC reading, in µg/mL
[7] = MRSA Isolate 6, upper value of MIC reading, in µg/mL
[8] = MRSA Isolate 7, upper value of MIC reading, in µg/mL
[9] = MRSA Isolate 8, upper value of MIC reading, in µg/mL
[10] = MRSA Isolate 9, upper value of MIC reading, in µg/mL
[11] = MRSA Isolate 10, upper value of MIC reading, in µg/mL

Compound: NC(=NN=Cc1cc(O)c(O)cc1O)c1ccncc1 [Compound 4PYcc]
MRSA MIC range (MRSA; [1]): 20 to 30 µg/mL

Compound: NC(=NN=Cc1cc([N+](=O)[O-])ccc1O)c1ccncc1 [Compound 4PYcj]
MRSA MIC range (MRSA; [1]): 20 to 30 µg/mL

Compound: NC(=NN=Cc1cc(I)cc(I)c1O)c1ccncc1 [Compound 4PYco]
MRSA MIC range (MRSA; [1]): 10 to 20 µg/mL

Compound: CC(C)(C)c1cc(C=NN=C(N)c2ccncc2)cc(C(C)(C)C)c1O [Compound 4PYcr]
MIC (S. aureus; S. aureus NCTC 6571): > 256 µg/mL
MIC (MRSA; [2]): >256
MRSA MIC range (MRSA; [1]): > 256 µg/mL

MIC (S. aureus; Staphylococcus aureus, 18 h, S. aureus Cowan 1, read-out: MIC): 8 µg/mL (≈ 21.8 µM)
MIC (S. aureus; Staphylococcus aureus, NCTC6571, 18 h, S. aureus NCTC 6571, read-out: MIC): 128 µg/mL (≈ 349 µM)
MIC (S. aureus; Staphylococcus aureus, NCTC10788, 18 h, S. aureus NCTC 10788, read-out: MIC): 16 µg/mL (≈ 43.6 µM)
MIC (MRSA; Staphylococcus aureus, 18 h, MRSA Isolate 1, upper value of MIC reading, read-out: MIC): 16 µg/mL (≈ 43.6 µM)
MIC (MRSA; Staphylococcus aureus, 18 h, MRSA Isolate 2, upper value of MIC reading, read-out: MIC): 16 µg/mL (≈ 43.6 µM)
MIC (MRSA; Staphylococcus aureus, 18 h, MRSA Isolate 3, upper value of MIC reading, read-out: MIC): 16 µg/mL (≈ 43.6 µM)
MIC (MRSA; Staphylococcus aureus, 18 h, MRSA Isolate 4, upper value of MIC reading, read-out: MIC): 16 µg/mL (≈ 43.6 µM)
MIC (MRSA; Staphylococcus aureus, 18 h, MRSA Isolate 5, upper value of MIC reading, read-out: MIC): 16 µg/mL (≈ 43.6 µM)
MIC (MRSA; Staphylococcus aureus, 18 h, MRSA Isolate 6, upper value of MIC reading, read-out: MIC): 16 µg/mL (≈ 43.6 µM)
MIC (MRSA; Staphylococcus aureus, 18 h, MRSA Isolate 7, upper value of MIC reading, read-out: MIC): 64 µg/mL (≈ 174 µM)
MIC (MRSA; Staphylococcus aureus, 18 h, MRSA Isolate 8, upper value of MIC reading, read-out: MIC): 32 µg/mL (≈ 87.2 µM)
MIC (MRSA; Staphylococcus aureus, 18 h, MRSA Isolate 9, upper value of MIC reading, read-out: MIC): 16 µg/mL (≈ 43.6 µM)
MIC (MRSA; Staphylococcus aureus, 18 h, MRSA Isolate 10, upper value of MIC reading, read-out: MIC): 16 µg/mL (≈ 43.6 µM)
MIC (MRSA; Staphylococcus aureus, MRSA, 18 h, panel of ten MRSA strains (clinical isolates), read-out: MRSA MIC range): 8 to 64 µg/mL (≈ 21.8 to 174 µM)
MIC (S. epidemisis; Staphylococcus epidermidis, 18 h, S. epidemisis Isolate 1, read-out: MIC): 256 µg/mL (≈ 698 µM)
MIC (S. epidemisis; Staphylococcus epidermidis, NCTC11047, 18 h, S. epidemisis NCTC 11047, read-out: MIC): 256 µg/mL (≈ 698 µM)
Compound: N/C(=N\N=C\c1ccccc1Sc1ccc(Cl)cc1)c1ccncc1 [Compound 4PYeh, N^1-[2-(4-chlorothiophenyl)benzylidene]-pyridine-4-carboxamidrazone]
MIC (S. haemolyticus; Staphylococcus haemolyticus, 18 h, read-out: MIC): 256 µg/mL (≈ 698 µM)

Compound: COc1ccc(C=NNc2ccccn2)c(O)c1 [HDcf]
MRSA MIC range (MRSA; [1]): 20 to 30 µg/mL

Compound: NC(=NN=Cc1ccc(O)c(O)c1O)c1cnccn1 [PZcb]
MIC (S. aureus; S. aureus Cowan 1): 256 µg/mL (≈ 937 µM)
MIC (S. aureus; S. aureus NCTC 6571): 256 µg/mL (≈ 937 µM)
MIC (S. aureus; S. aureus NCTC 10788): 256 µg/mL (≈ 937 µM)
MIC (MRSA; [3]): 256
MIC (MRSA; [4]): 256
MIC (MRSA; [2]): 256
MIC (MRSA; [5]): 256
MIC (MRSA; [6]): 256
MIC (MRSA; [7]): 256
MIC (MRSA; [8]): 256
MIC (MRSA; [9]): 256
MIC (MRSA; [10]): 256
MIC (MRSA; [11]): 256
MRSA MIC range (MRSA; [1]): 128 to 256 µg/mL
MIC (S. epidemisis; S. epidemisis NCTC 11047): 256 µg/mL (≈ 937 µM)
MIC (E. faecalis; E. faecalis Isolate 2): 256 µg/mL (≈ 937 µM)
MIC (E. faecalis; E. faecalis Isolate 3): 256 µg/mL (≈ 937 µM)
MIC (S. haemolyticus): 256 µg/mL (≈ 937 µM)

Compound: NC(=NN=Cc1cc([N+](=O)[O-])ccc1O)c1cnccn1 [PZcj]
MIC (S. aureus; S. aureus Cowan 1): 256 µg/mL (≈ 894 µM)
MIC (S. aureus; S. aureus NCTC 6571): 16 µg/mL (≈ 55.9 µM)
MIC (S. aureus; S. aureus NCTC 10788): 16 µg/mL (≈ 55.9 µM)
MIC (MRSA; [3]): 8
MIC (MRSA; [4]): 8
MIC (MRSA; [2]): 4
MIC (MRSA; [5]): 4
MIC (MRSA; [6]): 16
MIC (MRSA; [7]): 16
MIC (MRSA; [8]): 16
MIC (MRSA; [9]): 16
MIC (MRSA; [10]): 16
MIC (MRSA; [11]): 16
MRSA MIC range (MRSA; [1]): 4 to 16 µg/mL
MIC (S. epidemisis; S. epidemisis Isolate 1): 256 µg/mL (≈ 894 µM)
MIC (E. faecalis; E. faecalis Isolate 3): 256 µg/mL (≈ 894 µM)

Compound: CC(C)(C)[Si](C)(C)Oc1ccccc1/C=N/N=C(\N)c1cnccn1 [PZeg]
MRSA MIC range (MRSA; [1]): > 256 µg/mL

Compound: NC(=NN=Cc1cc(Br)cc([N+](=O)[O-])c1O)c1ccc2ccccc2n1 [QNcl]
MIC (S. aureus; S. aureus NCTC 6571): > 256 µg/mL
MIC (MRSA; [4]): 64
MIC (MRSA; [2]): 64
MIC (MRSA; [5]): 64
MIC (S. epidemisis; S. epidemisis NCTC 11047): 256 µg/mL (≈ 618 µM)
MIC (E. faecalis; E. faecalis Isolate 2): 256 µg/mL (≈ 618 µM)
MIC (E. faecalis; E. faecalis Isolate 3): 256 µg/mL (≈ 618 µM)
MIC (S. haemolyticus): 256 µg/mL (≈ 618 µM)

MIC (S. aureus; S. aureus Cowan 1): 32 µg/mL (≈ 130 µM)
MIC (S. aureus; S. aureus NCTC 6571): 16 µg/mL (≈ 65 µM)
MIC (S. aureus; S. aureus NCTC 10788): 16 µg/mL (≈ 65 µM)
MIC (MRSA; [3]): 16
MIC (MRSA; [4]): 16
MIC (MRSA; [2]): 32
MIC (MRSA; [5]): 16
MIC (MRSA; [6]): 16
MIC (MRSA; [7]): 32
MIC (MRSA; [8]): 32
MIC (MRSA; [9]): 32
MIC (MRSA; [10]): 32
Compound: O=Cc1cc(Br)cc([N+](=O)[O-])c1O [cl]
